Source: patent US12448394B2, “Heterocyclic pyrazole derivatives as type III receptor tyrosine kinase inhibitors” (DEVELOPMENT CENTER FOR BIOTECHNOLOGY, priority 2019, dated 2025)

Legend:
FLT3 kinase = molecular target: T1, FLT3 kinase (Homo sapiens, UniProt P36888); assay: FLT3 kinase assay (AlphaScreen); format: biochemical; conditions: read-out: Ranking of IC50 values, FLT3
T1 construct: purchased SignalChem
T1 sequence (P36888 27-993): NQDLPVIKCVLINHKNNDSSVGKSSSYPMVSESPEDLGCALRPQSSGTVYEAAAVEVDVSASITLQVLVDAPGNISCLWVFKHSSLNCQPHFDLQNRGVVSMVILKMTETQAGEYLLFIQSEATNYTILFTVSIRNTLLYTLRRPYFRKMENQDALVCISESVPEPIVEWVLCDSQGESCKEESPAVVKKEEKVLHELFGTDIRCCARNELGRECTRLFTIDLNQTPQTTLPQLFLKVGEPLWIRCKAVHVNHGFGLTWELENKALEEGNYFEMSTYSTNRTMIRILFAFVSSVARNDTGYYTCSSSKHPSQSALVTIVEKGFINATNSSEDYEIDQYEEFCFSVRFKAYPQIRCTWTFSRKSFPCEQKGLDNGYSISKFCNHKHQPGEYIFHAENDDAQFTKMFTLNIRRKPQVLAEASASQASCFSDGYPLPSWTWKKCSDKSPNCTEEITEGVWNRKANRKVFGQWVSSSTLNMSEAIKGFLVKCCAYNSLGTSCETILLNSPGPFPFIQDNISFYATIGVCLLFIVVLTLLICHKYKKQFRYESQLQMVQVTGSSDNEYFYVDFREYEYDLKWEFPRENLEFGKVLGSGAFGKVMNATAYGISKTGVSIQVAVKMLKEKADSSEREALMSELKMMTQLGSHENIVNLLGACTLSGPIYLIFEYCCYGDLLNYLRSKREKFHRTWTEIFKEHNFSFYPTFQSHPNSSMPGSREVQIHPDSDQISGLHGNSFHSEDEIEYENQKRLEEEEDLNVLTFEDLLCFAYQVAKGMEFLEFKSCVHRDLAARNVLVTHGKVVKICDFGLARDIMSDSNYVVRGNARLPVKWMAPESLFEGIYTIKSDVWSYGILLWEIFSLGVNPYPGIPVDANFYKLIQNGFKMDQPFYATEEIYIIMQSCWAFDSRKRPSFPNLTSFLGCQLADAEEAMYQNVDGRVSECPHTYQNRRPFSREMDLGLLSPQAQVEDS
Outline: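 Recombinant FLT3 (1.5 ng) phosphorylated biotinylated poly(Glu4:Tyr1) with 10 μM ATP in MOPS pH 7.0 buffer containing 10 mM MgCl2, 30 min at 30 °C, stopped with EDTA. Product detected by AlphaScreen; IC50 from duplicate serial dilutions.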

PDGFRα kinase = molecular target: T2, PDGFRα kinase (Homo sapiens, UniProt P16234); assay: PDGFRα kinase assay (AlphaScreen); format: biochemical; conditions: read-out: Ranking of IC50 values, PDGFRα
T2 construct: purchased SignalChem
Outline: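 Recombinant PDGFRα (1.5 ng) phosphorylated biotinylated poly(Glu4:Tyr1) with 10 μM ATP in MOPS pH 7.0 with 10 mM MgCl2, 30 min at 30 °C, stopped with EDTA. Product detected by AlphaScreen; IC50 from serial dilutions run in duplicate.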

[1] = tested on: phosphorylation of FLT3 and its down-stream effector STAT5; assay: Western blotting of p-FLT3 and p-STAT5 in MV4-11 cells; format: cell-based; conditions: Homo sapiens; at 30 nM treatment, 3 hours, FLT3-ITD positive MV4-11 leukemia cells; read-out: inhibition activity against phosphorylation of FLT3 and its down-stream effector STAT5
Outline: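 MV4-11 cells held overnight in IMDM with 0.1% FBS, then 3 million cells treated with compound for 3 h. Whole lysates immunoblotted for p-FLT3 (Tyr-591), p-STAT5 (Tyr-694) and actin. Band intensities at 30 nM compared to DMSO control; % inhibition = (1 − relative intensity) × 100.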

T2 sequence (P16234 24-1089): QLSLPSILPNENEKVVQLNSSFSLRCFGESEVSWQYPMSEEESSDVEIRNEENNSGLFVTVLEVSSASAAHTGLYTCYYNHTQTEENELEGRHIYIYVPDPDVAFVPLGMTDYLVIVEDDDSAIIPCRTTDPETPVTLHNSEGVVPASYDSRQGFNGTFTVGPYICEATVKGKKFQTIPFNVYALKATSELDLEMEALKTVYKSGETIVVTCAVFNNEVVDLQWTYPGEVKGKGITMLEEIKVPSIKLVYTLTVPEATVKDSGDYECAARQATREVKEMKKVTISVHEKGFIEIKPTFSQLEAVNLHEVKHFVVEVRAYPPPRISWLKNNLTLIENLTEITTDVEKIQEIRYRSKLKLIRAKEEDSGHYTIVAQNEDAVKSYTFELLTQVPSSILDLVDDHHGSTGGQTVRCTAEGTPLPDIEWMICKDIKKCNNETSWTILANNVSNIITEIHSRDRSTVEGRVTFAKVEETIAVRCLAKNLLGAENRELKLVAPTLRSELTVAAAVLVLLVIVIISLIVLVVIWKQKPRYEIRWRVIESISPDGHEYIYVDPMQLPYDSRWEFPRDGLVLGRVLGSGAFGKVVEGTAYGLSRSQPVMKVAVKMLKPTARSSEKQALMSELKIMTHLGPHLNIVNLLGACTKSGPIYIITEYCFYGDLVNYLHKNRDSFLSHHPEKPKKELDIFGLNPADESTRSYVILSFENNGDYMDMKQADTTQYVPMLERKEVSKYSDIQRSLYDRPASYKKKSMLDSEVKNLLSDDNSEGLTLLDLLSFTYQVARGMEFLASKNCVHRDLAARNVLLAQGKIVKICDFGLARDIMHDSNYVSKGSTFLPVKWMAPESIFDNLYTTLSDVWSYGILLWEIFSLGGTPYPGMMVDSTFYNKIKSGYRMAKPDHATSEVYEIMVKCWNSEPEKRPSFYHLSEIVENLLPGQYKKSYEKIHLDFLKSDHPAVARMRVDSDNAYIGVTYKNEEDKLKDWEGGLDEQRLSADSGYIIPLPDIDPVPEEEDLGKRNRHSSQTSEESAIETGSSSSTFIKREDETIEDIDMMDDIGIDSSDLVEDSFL

Row | Compound | IC50 (FLT3 kinase) [nM] | IC50 (PDGFRα kinase) [nM] | inhibition at 0.03 µM [1] [%]
1 | Cn1ncc2ccc(-c3n[nH]c4c3Cc3sc(C#CCN5CCOCC5)cc3-4)cc21 [Compound 71, 4-(3-(3-(1-methyl-1H-indazol-6-yl)-1,4-dihydro-thieno[2′,3′:4,5]cyclopenta [1,2-c]pyrazol-6-yl)prop-2-yn-1-yl)morpholine] | 1 to 10 | 30 to 100 | > 50
2 | Cn1ncc2ccc(-c3n[nH]c4c3Cc3sc(-c5ccc(NC6CCOCC6)cc5)cc3-4)cc21 [Compound 72, N-(4-(3-(1-methyl-1H-indazol-6-yl)-1,4-dihydro-thieno[2′,3′:4,5]cyclopenta [1,2-c]pyrazol-6-yl)phenyl)tetrahydro-2H-pyran-4-amine] | 1 to 10 | 10 to 30 | > 50
3 | C[C@@H]1COCCN1Cc1ccc(-c2cc3c(s2)Cc2c(-c4ccc5cnn(C)c5c4)n[nH]c2-3)cc1 [Compound 74, (R)-3-methyl-4-(4-(3-(1-methyl-1H-indazol-6-yl)-1,4-dihydrothieno [2′,3′:4,5]cyclopenta [1,2-c]pyrazol-6-yl)benzyl)morpholine] | < 1 | 1 to 10 | > 50
4 | C[C@H]1COCCN1Cc1ccc(-c2cc3c(s2)Cc2c(-c4ccc5cnn(C)c5c4)n[nH]c2-3)cc1 [Compound 75, (S)-3-methyl-4-(4-(3-(1-methyl-1H-indazol-6-yl)-1,4-dihydrothieno [2′,3′:4,5]cyclopenta [1,2-c]pyrazol-6-yl)benzyl)morpholine] | < 1 | 1 to 10 | > 50
5 | Cn1ncc2ccc(-c3n[nH]c4c3Cc3sc(N5CCOCC5)cc3-4)cc21 [Compound 78, 4-(3-(1-methyl-1H-indazol-6-yl)-1,4-dihydro-thieno[2′,3′:4,5]cyclopenta [1,2-c]pyrazol-6-yl) morpholine] | < 1 | 1 to 10 | > 50
6 | Cn1ncc2ccc(-c3n[nH]c4c3Cc3sc(N5CCOCC5=O)cc3-4)cc21 [Compound 79, 4-(3-(1-methyl-1H-indazol-6-yl)-1,4-dihydro-thieno[2′,3′:4,5]cyclopenta [1,2-c]pyrazol-6-yl) morpholin-3-one] | < 1 | 1 to 10 | > 50
7 | Cn1ncc2ccc(-c3n[nH]c4c3Cc3sc(-c5ccc(CN6CCC(N7CCOCC7)CC6)cc5)cc3-4)cc21 [Compound 80, 4-(1-(4-(3-(1-methyl-1H-indazol-6-yl)-1,4-dihydro-thieno[2′,3′:4,5]cyclopenta [1,2-c]pyrazol-6-yl)benzyl)piperidin-4-yl) morpholine] | < 1 | 1 to 10 | > 50
8 | Cn1ncc2ccc(-c3n[nH]c4c3Cc3sc(-c5ccc(CN6CCOCC6)cn5)cc3-4)cc21 [Compound 95, 4-((6-(3-(1-methyl-1H-indazol-6-yl)-1,4-dihydro-thieno[2′,3′:4,5]cyclopenta [1,2-c]pyrazol-6-yl)pyridin-3-yl)methyl) morpholine] | < 1 | 1 to 10 | > 50
9 | Cn1ncc2ccc(-c3n[nH]c4c3Cc3sc(C5CCNCC5)cc3-4)cc21 [Compound 96, 3-(1-methyl-1H-indazol-6-yl)-6-(piperidin-4-yl)-1,4-dihydrothieno [2′,3′:4,5]cyclopenta [1,2-c]pyrazole] | < 1 | 1 to 10 | > 50
10 | Cn1ncc2ccc(-c3n[nH]c4c3Cc3sc(-c5ccc(CN6CCCOCC6)cc5)cc3-4)cc21 [Compound 97, 4-(4-(3-(1-methyl-1H-indazol-6-yl)-1,4-dihydro-thieno[2′,3′:4,5]cyclopenta [1,2-c]pyrazol-6-yl)benzyl)-1,4-oxazepane] | < 1 | 30 to 100 | > 50
11 | Cn1ncc2ccc(-c3n[nH]c4c3Cc3sc(C5CCN(C(=O)CN6CCOCC6)CC5)cc3-4)cc21 [Compound 98, 1-(4-(3-(1-methyl-1H-indazol-6-yl)-1,4-dihydro-thieno[2′,3′:4,5]cyclopenta [1,2-c]pyrazol-6-yl)piperidin-1-yl)-2-morpholinoethan-1-one] | < 1 | 1 to 10 | > 50
12 | Cn1ncc2ccc(-c3n[nH]c4c3Cc3sc(-c5ccc(CN6CCCC6)cc5)cc3-4)cc21 [Compound 99, 3-(1-methyl-1H-indazol-6-yl)-6-(4-(pyrrolidin-1-ylmethyl)phenyl)-1,4-dihydrothieno[2′,3′:4,5] cyclopenta[1,2-c]pyrazole] | < 1 | 1 to 10 | > 50
13 | Cn1ncc2ccc(-c3n[nH]c4c3Cc3sc(-c5ccc(CN6CCCCC6)cc5)cc3-4)cc21 [Compound 100, 3-(1-methyl-1H-indazol-6-yl)-6-(4-(piperidin-1-ylmethyl)phenyl)-1,4-dihydrothieno[2′,3′:4,5] cyclopenta[1,2-c]pyrazole] | < 1 | 1 to 10 | > 50
14 | Cn1ncc2ccc(-c3n[nH]c4c3Cc3sc(-c5ccc(CN6CC7(COC7)C6)cc5)cc3-4)cc21 [Compound 102, 6-(4-(3-(1-methyl-1H-indazol-6-yl)-1,4-dihydro-thieno[2′,3′:4,5]cyclopenta [1,2-c]pyrazol-6-yl)benzyl)-2-oxa-6-azaspiro [3.3]heptane] | < 1 | 1 to 10 | > 50
15 | Cn1ncc2ccc(-c3n[nH]c4c3Cc3sc(-c5ccc(CN6CCC6)cc5)cc3-4)cc21 [Compound 103, 6-(4-(azetidin-1-ylmethyl)phenyl)-3-(1-methyl-1H-indazol-6-yl)-1,4-dihydro-thieno[2′,3′:4,5]cyclopenta [1,2-c]pyrazole] | < 1 | 1 to 10 | > 50
16 | COC1CN(Cc2ccc(-c3cc4c(s3)Cc3c(-c5ccc6cnn(C)c6c5)n[nH]c3-4)cc2)C1 [Compound 105, 6-(4-((3-methoxyazeti-din-1-yl)methyl)phenyl)-3-(1-methyl-1H-indazol-6-yl)-1,4-dihydrothieno [2′,3′:4,5]cyclopenta [1,2-c]pyrazole] | < 1 | 1 to 10 | > 50
